Laboratory results from patent US10308649B2, “Compounds and methods to suppress autoimmune response” (Oregon State University, priority 2014, dated 2019).

Experiments:
[1] = test system: NOD.Foxp3DTR mice; assay: Islet infiltration in Foxp3 depleted (DT treated) NOD.Foxp3DTR mice; format: in vivo, mouse; conditions: day 9, AHRL1 60 mg/kg oral days -1, 1, 3, 5, 7, TCDD day -1
Source text: FIGS. 6a-6e illustrate the therapeutic effects of treatment with an AhR ligand on a Foxp3 deficient subject using a NOD.Foxp3− mouse model. […]. NOD.Foxp3^DTR mice were obtained from the Juvenile Diabetes Research Foundation Center (JDRF) for Immune Tolerance in Diabetes at Harvard (CITDH). Mice were bred and maintained under specific pathogen-free conditions at Oregon State University facilities. All experimental procedures using animals were approved by the Institutional Animal Care and Use Committee at Oregon State University.
FIG. 6a illustrates details of the mouse model used to analyze the therapeutic effects and mechanisms by which AhR activation alters T cell differentiation. […] Arrows 152 illustrate the NOD.Foxp3^DTR mice were orally dosed with 60 mg/kg AHRL1 on days −1, 1, 3, 5, and 7 relative to DT treatment on day 0. The carrier for AHRL1 was a 30% DMSO, 20% CREMAPHOR, 50% PECEOL solution. Data was also collected from NOD.Foxp3^DTR mice treated with TCDD on day −1 relative to DT treatment on day 0. […]
The pancreases from the sacrificed mice were excised, sectioned, and stained with hematoxylin and eosin for analysis of islet infiltration by inflammatory CTL cells. Islet infiltration was scored on sequential hematoxylin and eosin stained pancreas sections separated by 200 μm. Islets were scored as no infiltration, less than 50% infiltration, or greater than 50% infiltration. […]

[2] = test system: CYP1A1; assay: CYP1A1 mRNA induction in Hepa-1 cells; conditions: 1 nM
Procedure: The levels of CYP1A1 expression were determined by measuring CYP1A1 messenger ribonucleic acid (mRNA) levels.

Question: How did the “islets showing no infiltration” value [1] turn out when `Clc1cc2c(cc1Cl)Oc1cc(Cl)c(Cl)cc1O2` [TCDD, 2,3,7,8-tetrachlorodibenzo-p-dioxin] was run?
Answer: Its value is “greater percentage of islets being free from infiltration”.

Question: What about the “CYP1A1 mRNA induction” value [2] of the same compound?
Answer: The value was “comparable level of induction”.
